# Measured values taken from patent publication US6737383B1, “Herbicidal oxadiazolidines” (priority 1999, dated 2004).
# Columns and labels:
# [1] = system: bedstraw; test: Test B pre/postemergence bedstraw; format: in vivo, Galium aparine
# In short: (§1)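 Herbicidal effect was estimated by eye on a ten-point control scale after plants spent twelve to sixteen days in a greenhouse following soil or foliar treatment. Foliar sprays targeted plants at one to four leaves; all doses were formulated in a non-phytotoxic solvent with surfactant.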
# [2] = system: blackgrass; test: Test B pre/postemergence blackgrass; format: in vivo, Alopecurus myosuroides
# In short: as §1
# [3] = system: surinam grass; test: Test B pre/postemergence surinam grass; format: in vivo, Brachiaria decumbens
# In short: as §1
# [4] = system: cocklebur; test: Test B pre/postemergence cocklebur; format: in vivo, Xanthium strumarium
# In short: as §1
# [5] = system: corn; test: Test B pre/postemergence corn; format: in vivo, Zea mays
# In short: as §1
# [6] = system: crabgrass; test: Test B pre/postemergence crabgrass; format: in vivo, Digitaria sanguinalis
# In short: as §1
# [7] = system: giant foxtail; test: Test B pre/postemergence giant foxtail; format: in vivo, Setaria faberii
# In short: as §1
# [8] = system: morningglory; test: Test B pre/postemergence morningglory; format: in vivo, Ipomoea hederacea
# In short: as §1
# [9] = system: pigweed; test: Test B pre/postemergence pigweed; format: in vivo, Amaranthus retroflexus
# In short: as §1
# [10] = system: rape; test: Test B pre/postemergence rape; format: in vivo, Brassica napus
# In short: as §1
# [11] = system: soybean; test: Test B pre/postemergence soybean; format: in vivo, Glycine max
# In short: as §1
# [12] = system: sugar beet; test: Test B pre/postemergence sugar beet; format: in vivo, Beta vulgaris
# In short: as §1
# [13] = system: velvetleaf; test: Test B pre/postemergence velvetleaf; format: in vivo, Abutilon theophrasti
# In short: as §1
# [14] = system: wheat; test: Test B pre/postemergence wheat; format: in vivo, Triticum aestivum
# In short: as §1
# [15] = system: wild oat; test: Test B pre/postemergence wild oat; format: in vivo, Avena fatua
# In short: as §1
# [16] = system: purple nutsedge; test: Test B pre/postemergence purple nutsedge; format: in vivo, Cyperus rotundus
# In short: as §1
# [17] = Postemergence, Rate 62 g/ha, scale of 0 to 10, 0 is no effect, 10 is complete control
# [18] = Postemergence, Rate 125 g/ha, scale 0 to 10, 0 is no effect, 10 is complete control
# [19] = Postemergence, Rate 500 g/ha, scale 0 to 10, 0 is no effect, 10 is complete control
# [20] = Preemergence, Rate 62 g/ha, scale 0 to 10 (0 no effect, 10 complete control)
# [21] = Preemergence, Rate 125 g/ha, scale 0 to 10, 0 is no effect, 10 is complete control
# [22] = Preemergence, Rate 500 g/ha, scale of 0 to 10 where 0 is no effect and 10 is complete control
# [23] = Rate 250 g/ha, Postemergence, scale of 0 to 10 where 0 is no effect and 10 is complete control
# [24] = Preemergence, Rate 62 g/ha, scale of 0 to 10 where 0 is no effect and 10 is complete control
# [25] = Preemergence, Rate 125 g/ha, scale of 0 to 10 where 0 is no effect and 10 is complete control
# [26] = Preemergence, Rate 250 g/ha, scale 0 (no effect) to 10 (complete control)
# [27] = Rate 500 g/ha, Preemergence, scale 0 to 10 (0 no effect, 10 complete control)
smiles,measurement,setting,value
CC(C)=CCn1c(=O)on(C(=O)N(c2ccc(Cl)cc2)C(C)C)c1=O [Compound 545],Bedstraw plant response rating,[1]; [17],0
same,Bedstraw plant response rating,[1]; [18],0
same,"Plant response rating, Bedstraw",[1]; [19],7
same,Bedstraw plant response rating,[1]; [20],0
same,Bedstraw plant response rating,[1]; [21],0
same,Bedstraw plant response rating (0 to 10 scale),"[1]; Preemergence, Rate 250 g/ha",0
same,Bedstraw plant response rating,[1]; [22],10
same,"Plant response rating, Bedstraw",[1]; [23],2
same,Blackgrass plant response rating,[2]; [17],0
same,Blackgrass plant response rating,[2]; [18],0
same,"Plant response rating, Blackgrass",[2]; [19],0
same,Blackgrass plant response rating,[2]; [20],0
same,Blackgrass plant response rating,[2]; [21],0
same,Blackgrass plant response rating (0 to 10 scale),"[2]; Preemergence, Rate 250 g/ha",2
same,Blackgrass plant response rating,[2]; [22],9
same,"Plant response rating, Blackgrass",[2]; [23],0
same,B. signalgrass plant response rating,[3]; [17],0
same,B. signalgrass plant response rating,[3]; [18],0
same,"Plant response rating, B. signalgrass",[3]; [19],2
same,B. signalgrass plant response rating,[3]; [20],0
same,B. signalgrass plant response rating,[3]; [21],0
same,"B. signalgrass plant response rating (0 to 10 scale, 0 is no effect, 10 is complete control)","[3]; Preemergence, Rate 250 g/ha",0
same,B. signalgrass plant response rating,[3]; [22],5
same,"Plant response rating, B. signalgrass",[3]; [23],2
same,Cocklebur plant response rating,[4]; [17],0
same,Cocklebur plant response rating,[4]; [18],3
same,Cocklebur plant response rating,[4]; [20],0
same,Cocklebur plant response rating,[4]; [21],0
same,Cocklebur plant response rating (0 to 10 scale),"[4]; Preemergence, Rate 250 g/ha",0
same,Cocklebur plant response rating,[4]; [22],0
same,"Plant response rating, Cocklebur",[4]; [23],8
same,Corn plant response rating,[5]; [17],0
same,Corn plant response rating,[5]; [18],0
same,"Plant response rating, Corn",[5]; [19],0
same,Corn plant response rating,[5]; [20],0
same,Corn plant response rating,[5]; [21],0
same,Corn plant response rating (0 to 10 scale),"[5]; Preemergence, Rate 250 g/ha",0
same,Corn plant response rating,[5]; [22],0
same,"Plant response rating, Corn",[5]; [23],0
same,Crabgrass plant response rating,[6]; [17],0
same,Crabgrass plant response rating,[6]; [18],2
same,"Plant response rating, Crabgrass",[6]; [19],9
same,Crabgrass plant response rating,[6]; [20],8
same,Crabgrass plant response rating,[6]; [21],10
same,Crabgrass plant response rating (0 to 10 scale),"[6]; Preemergence, Rate 250 g/ha",10
same,Crabgrass plant response rating,[6]; [22],10
same,"Plant response rating, Crabgrass",[6]; [23],3
same,Giant foxtail plant response rating,[7]; [17],0
same,Giant foxtail plant response rating,[7]; [18],0
same,"Plant response rating, Giant foxtail",[7]; [19],5
same,Giant foxtail plant response rating,[7]; [20],10
same,Giant foxtail plant response rating,[7]; [21],10
same,Giant foxtail plant response rating (0 to 10 scale),"[7]; Preemergence, Rate 250 g/ha",10
same,Giant foxtail plant response rating,[7]; [22],10
same,"Plant response rating, Giant foxtail",[7]; [23],3
same,Morningglory plant response rating,[8]; [17],4
same,Morningglory plant response rating,[8]; [18],4
same,Morningglory plant response rating,[8]; [20],0
same,Morningglory plant response rating,[8]; [21],0
same,Morningglory plant response rating (0 to 10 scale),"[8]; Preemergence, Rate 250 g/ha",0
same,Morningglory plant response rating,[8]; [22],8
same,"Plant response rating, Morningglory",[8]; [23],10
same,Redroot pigweed plant response rating,[9]; [17],0
same,Redroot pigweed plant response rating,[9]; [18],0
same,"Plant response rating, Redroot pigweed",[9]; [19],0
same,Redroot pigweed plant response rating,[9]; [20],3
same,Redroot pigweed plant response rating,[9]; [21],8
same,Redroot pigweed plant response rating (0 to 10 scale),"[9]; Preemergence, Rate 250 g/ha",9
same,Redroot pigweed plant response rating,[9]; [22],10
same,"Plant response rating, Redroot pigweed",[9]; [23],0
same,Rape plant response rating,[10]; [17],0
same,Rape plant response rating,[10]; [18],0
same,"Plant response rating, Rape",[10]; [19],3
same,Rape plant response rating,[10]; [20],0
same,Rape plant response rating,[10]; [21],0
same,Rape plant response rating (0 to 10 scale),"[10]; Preemergence, Rate 250 g/ha",0
same,Rape plant response rating,[10]; [22],2
same,"Plant response rating, Rape",[10]; [23],0
same,Soybean plant response rating,[11]; [17],1
same,Soybean plant response rating,[11]; [18],1
same,"Plant response rating, Soybean",[11]; [19],2
same,Soybean plant response rating,[11]; [20],0
same,Soybean plant response rating,[11]; [21],0
same,Soybean plant response rating (0 to 10 scale),"[11]; Preemergence, Rate 250 g/ha",0
same,Soybean plant response rating,[11]; [22],0
same,"Plant response rating, Soybean",[11]; [23],2
same,Sugarbeets plant response rating,[12]; [17],0
same,Sugarbeets plant response rating,[12]; [18],0
same,"Plant response rating, Sugarbeets",[12]; [19],3
same,Sugarbeets plant response rating,[12]; [20],0
same,Sugarbeets plant response rating,[12]; [21],0
same,Sugarbeets plant response rating (0 to 10 scale),"[12]; Preemergence, Rate 250 g/ha",2
same,Sugarbeets plant response rating,[12]; [22],6
same,"Plant response rating, Sugarbeets",[12]; [23],0
same,Velvetleaf plant response rating,[13]; [17],0
same,Velvetleaf plant response rating,[13]; [18],3
same,Velvetleaf plant response rating,[13]; [20],0
same,Velvetleaf plant response rating,[13]; [21],0
same,Velvetleaf plant response rating (0 to 10 scale),"[13]; Preemergence, Rate 250 g/ha",0
same,Velvetleaf plant response rating,[13]; [22],0
same,"Plant response rating, Velvetleaf",[13]; [23],6
same,Wheat plant response rating,[14]; [17],0
same,Wheat plant response rating,[14]; [18],0
same,"Plant response rating, Wheat",[14]; [19],0
same,Wheat plant response rating,[14]; [20],0
same,Wheat plant response rating,[14]; [21],0
same,Wheat plant response rating (0 to 10 scale),"[14]; Preemergence, Rate 250 g/ha",0
same,Wheat plant response rating,[14]; [22],2
same,"Plant response rating, Wheat",[14]; [23],0
same,Wild oats plant response rating,[15]; [17],0
same,Wild oats plant response rating,[15]; [18],0
same,"Plant response rating, Wild oats",[15]; [19],0
same,Wild oats plant response rating,[15]; [20],0
same,Wild oats plant response rating,[15]; [21],0
same,Wild oats plant response rating (0 to 10 scale),"[15]; Preemergence, Rate 250 g/ha",2
same,Wild oats plant response rating,[15]; [22],6
same,"Plant response rating, Wild oats",[15]; [23],0
same,Nutsedge plant response rating,[16]; [17],0
same,Nutsedge plant response rating,[16]; [20],0
same,Nutsedge plant response rating,[16]; [21],0
same,Nutsedge plant response rating (0 to 10 scale),"[16]; Preemergence, Rate 250 g/ha",0
same,Nutsedge plant response rating,[16]; [22],0
CC(C)N(C(=O)n1oc(=O)n(CCC(=O)N(C)C)c1=O)c1ccc(Cl)cc1 [Compound 719],Bedstraw plant response rating,[1]; [24],0
same,"Plant response rating, Bedstraw",[1]; [25],0
same,Bedstraw plant response rating,[1]; [26],0
same,Bedstraw plant response rating,[1]; [27],0
same,Blackgrass plant response rating,[2]; [24],6
same,"Plant response rating, Blackgrass",[2]; [25],8
same,Blackgrass plant response rating,[2]; [26],9
same,Blackgrass plant response rating,[2]; [27],10
same,B. signalgrass plant response rating,[3]; [24],3
same,"Plant response rating, B. signalgrass",[3]; [25],7
same,B. signalgrass plant response rating,[3]; [26],7
same,B. signalgrass plant response rating,[3]; [27],9
same,Cocklebur plant response rating,[4]; [24],0
same,"Plant response rating, Cocklebur",[4]; [25],0
same,Cocklebur plant response rating,[4]; [26],0
same,Cocklebur plant response rating,[4]; [27],0
same,Corn plant response rating,[5]; [24],0
same,"Plant response rating, Corn",[5]; [25],0
same,Corn plant response rating,[5]; [26],0
same,Corn plant response rating,[5]; [27],5
same,"Plant response rating, Crabgrass",[6]; [25],3
same,Crabgrass plant response rating,[6]; [26],8
same,Crabgrass plant response rating,[6]; [27],9
same,"Plant response rating, Giant foxtail",[7]; [25],5
same,Giant foxtail plant response rating,[7]; [26],8
same,Giant foxtail plant response rating,[7]; [27],10
same,Morningglory plant response rating,[8]; [24],0
same,"Plant response rating, Morningglory",[8]; [25],1
same,Morningglory plant response rating,[8]; [26],3
same,Morningglory plant response rating,[8]; [27],3
same,Redroot pigweed plant response rating,[9]; [24],7
same,"Plant response rating, Redroot pigweed",[9]; [25],7
same,Redroot pigweed plant response rating,[9]; [26],10
same,Redroot pigweed plant response rating,[9]; [27],10
same,Rape plant response rating,[10]; [24],0
same,"Plant response rating, Rape",[10]; [25],0
same,Rape plant response rating,[10]; [26],2
same,Rape plant response rating,[10]; [27],6
same,Soybean plant response rating,[11]; [24],0
same,"Plant response rating, Soybean",[11]; [25],0
same,Soybean plant response rating,[11]; [26],0
same,Soybean plant response rating,[11]; [27],0
same,Sugarbeets plant response rating,[12]; [24],4
same,"Plant response rating, Sugarbeets",[12]; [25],4
same,Sugarbeets plant response rating,[12]; [26],6
same,Sugarbeets plant response rating,[12]; [27],8
same,Velvetleaf plant response rating,[13]; [24],0
same,"Plant response rating, Velvetleaf",[13]; [25],0
same,Velvetleaf plant response rating,[13]; [26],0
same,Velvetleaf plant response rating,[13]; [27],0
same,Wheat plant response rating,[14]; [24],0
same,"Plant response rating, Wheat",[14]; [25],0
same,Wheat plant response rating,[14]; [26],3
same,Wheat plant response rating,[14]; [27],5
same,Wild oats plant response rating,[15]; [24],2
same,"Plant response rating, Wild oats",[15]; [25],6
same,Wild oats plant response rating,[15]; [26],9
same,Wild oats plant response rating,[15]; [27],9
same,Nutsedge plant response rating,[16]; [24],0
same,"Plant response rating, Nutsedge",[16]; [25],0
same,Nutsedge plant response rating,[16]; [26],0
same,Nutsedge plant response rating,[16]; [27],0
